According to ChEMBL document CHEMBL4196028, “Synthesis and biological evaluation of 20-epi-amino-20-deoxysalinomycin derivatives” (Eur J Med Chem, 2018):

Test: physchem
Settings: n-octanol/water
For `CC[C@@H](C(=O)[C@@H](C)[C@@H](O)[C@H](C)[C@@H]1O[C@@H]([C@@H](CC)C(=O)O)CC[C@@H]1C)[C@H]1O[C@]2(C=C[C@@H](O)[C@]3(CC[C@@](C)([C@H]4CC[C@](O)(CC)[C@H](C)O4)O3)O2)[C@H](C)C[C@@H]1C` [SALINOMYCIN], the logP was 2.21.
For `CC[C@@H](C(=O)[C@@H](C)[C@@H](O)[C@H](C)[C@@H]1O[C@@H]([C@@H](CC)C(=O)O)CC[C@@H]1C)[C@H]1O[C@]2(C=C[C@H](NC(=O)OCc3ccccc3)[C@]3(CC[C@@](C)([C@H]4CC[C@](O)(CC)[C@H](C)O4)O3)O2)[C@H](C)C[C@@H]1C`, the logP was 1.77.
In the case of `CC[C@@H](C(=O)[C@@H](C)[C@@H](O)[C@H](C)[C@@H]1O[C@@H]([C@@H](CC)C(=O)OCC[Si](C)(C)C)CC[C@@H]1C)[C@H]1O[C@]2(C=C[C@H](n3cc(COC(C(F)(F)F)(C(F)(F)F)C(F)(F)F)nn3)[C@]3(CC[C@@](C)([C@H]4CC[C@](O)(CC)[C@H](C)O4)O3)O2)[C@H](C)C[C@@H]1C`, the logP is reported as 1.95.
